Values joined by “and” are separate entries in the source; they are usually repeats but may differ in a detail not shown here. Equal values may be shown once.
How the values were obtained:
[1] = tested on: Klebsiella variicola (DSM 15968); type: cell-based
[2] = tested on: Bacillus subtilis (DSM 347); type: cell-based
[3] = tested on: Pseudomonas aeruginosa (CIP 107398); type: cell-based
[4] = tested on: Clostridium propionicum (DSM 6251); assay: microbe, parasite or virus in culture; type: cell-based
[5] = tested on: Enterococcus faecalis (DSM 13591); assay: microbe, parasite or virus in culture; type: cell-based
[6] = tested on: Bacteroides thetaioataomicron (DSM 2255); assay: microbe, parasite or virus in culture; type: cell-based
[7] = tested on: Citrobacter rodentium (ATCC 51116); type: cell-based
[8] = tested on: Staphylococcus aureus (ATCC 6538P); type: cell-based
[9] = tested on: Aspergillus flavus (DSM 1959); type: cell-based
[10] = tested on: Propionibacterium acnes (ATCC 6919); assay: microbe, parasite or virus in culture; type: cell-based
[11] = tested on: human (Caco-2 and T84) and pig (IPEC-J2) intestinal cells
[12] = tested on: Mycobacterium smegmatis (ATCC 700084); type: cell-based
[13] = tested on: Clostridium difficile (DSM 1296); assay: microbe, parasite or virus in culture; type: cell-based
T84 cells (ATCC CCL-248) = assay: cells; type: cell-based, human; conditions: read-out: IC50 (concentration causing 50% cell death)
[14] = tested on: Fusarium oxysporum (DSM 62316); type: cell-based
[15] = tested on: Salmonella enterica (CIP 80.39); type: cell-based
[16] = tested on: Lactobacillus acidophilus (DSM 20079); assay: microbe, parasite or virus in culture; type: cell-based
[17] = tested on: Clostridium perfringens (ATCC 13124); type: cell-based
[18] = tested on: Fusarium graminearum (DSM 1095); type: cell-based
IPEC-J2 cells = assay: cells; type: cell-based, pig; conditions: read-out: IC50 (concentration causing 50% cell death)
[19] = tested on: Escherichia coli (ATCC 8739); type: cell-based
[20] = tested on: Lactococcus lactis (DSM 20481); type: cell-based
[21] = tested on: Clostridium coccoides (DSM 935); assay: microbe, parasite or virus in culture; type: cell-based
[22] = tested on: Aspergillus ochraceus (DSM 824); type: cell-based
[23] = tested on: Clostridium perfringens (ATCC 13124); type: cell-based; remark: listed apart in the source
[24] = tested on: Fusarium verticillioides (DSM 62264); type: cell-based
[25] = tested on: Helicobacter pylori (ATCC 43504); assay: microbe, parasite or virus in culture; type: cell-based
[26] = tested on: Clostridium perfringens strain (ATCC 13124) and clinical strains of Clostridium perfringens; type: cell-based
[27] = tested on: Aspergillus niger (ATCC 9142); type: cell-based
[28] = tested on: Micrococcus luteus (DSM 20030); type: cell-based
[29] = tested on: Arthrobacter gandavensis (DSM 2447); type: cell-based
[30] = tested on: Klebsiella pneumoniae (DSMZ 26371); type: cell-based
[31] = tested on: clinical strains of Clostridium perfringens isolated from human patients or animals; type: cell-based
[32] = tested on: Clostridium perfringens (ATCC 13124)
Bacillus cereus (DSM 31) = type: cell-based
[33] = tested on: Staphylococcus aureus MRSA USA300 (ATCC BAA-1717); type: cell-based
[34] = tested on: Penicillium verrucosum (DSM 12639); type: cell-based
[35] = tested on: Listeria monocytogenes (DSM 20600); type: cell-based
[36] = tested on: Citrobacter farmeri (ATCC 51633); type: cell-based
[37] = tested on: Clostridium botulinum (DSM 1985); assay: microbe, parasite or virus in culture; type: cell-based
[38] = tested on: Acinetobacter baumannii (CIP 110431); type: cell-based
[39] = tested on: Clostridium nexile (DSM 1787); assay: microbe, parasite or virus in culture; type: cell-based
[40] = tested on: Candida albicans (DSM 10697); type: cell-based
[41] = tested on: Caco-2 cells (ATCC HTB-37); assay: cells; type: cell-based, human; conditions: read-out: IC50 (concentration causing 50% cell death)
[42] = tested on: Shigella flexneri (ATCC 12022); type: cell-based
[43] = tested on: Streptococcus thermophilus (ATCC LMD-9); assay: microbe, parasite or virus in culture; type: cell-based
[44] = tested on: Clostridium perfringens (ATCC13124); type: cell-based
[45] = tested on: Streptococcus pyogenes (DSM 20565); assay: microbe, parasite or virus in culture; type: cell-based

Destruxin B
MIC [1]: >100 µM
MIC [2]: >100 µM
MIC [3]: >100 µM
MIC [4]: >100 µM
MIC [5]: >100 µM
MIC [6]: >100 µM
MIC [7]: >100 µM
MIC [8]: >100 µM
MIC [9]: >100 µM
MIC [10]: >100 µM
toxicity to intestinal cells [11]: not toxic
MIC [12]: >100 µM
MIC [13]: >100 µM
IC50 (T84 cells (ATCC CCL-248)): > 100 µM
MIC [14]: >100 µM
MIC [15]: >100 µM
MIC [16]: >100 µM
permeabilisation of the bacterial membrane [17]: no permeabilisation
MIC [18]: >100 µM
IC50 (IPEC-J2 cells): > 100 µM
MIC [19]: >100 µM
MIC [20]: >100 µM
MIC [21]: >100 µM
MIC [22]: >100 µM
morphological phenotype (mechanism of action) [23]: hypercondensation of bacterial DNA
MIC [24]: >100 µM
MIC [25]: >100 µM
minimum bactericidal concentrations (BMC values) [26]: identical to the MIC values
MIC [27]: >100 µM
MIC [28]: >100 µM
MIC [29]: >100 µM
MIC [30]: >100 µM
MIC [31]: 3 µM and 1.5 µM
MIC (mg/L) [32]: 1.78 mg/L
MIC (Bacillus cereus (DSM 31)): >100 µM
MIC [33]: >100 µM
MIC [34]: >100 µM
MIC [35]: >100 µM
MIC [36]: >100 µM
MIC [37]: >100 µM
MIC [38]: >100 µM
MIC [39]: >100 µM
MIC [40]: >100 µM
IC50 [41]: > 100 µM
MIC [42]: >100 µM
MIC [43]: >100 µM
change of MIC during exposure [44]: do not change or change only slightly
MIC [45]: >100 µM

Reference: patent US20220133842A1 (priority 2019, published 2022)
